From article PMC5951806, “Rapid labelling and covalent inhibition of intracellular native proteins using ligand-directed N-acyl-N-alkyl sulfonamide” (Nature Communications, 2018)

Columns and labels:
[1] = molecular target: T1, Isoform 3 of Very long-chain specific acyl-CoA dehydrogenase, mitochondrial (ACADVL) (Homo sapiens, UniProt P49748); assay: TMT LC-MSMS of 11-labelled proteins; format: cell-based
T1 sequence (P49748 64-678 isoform P49748-3): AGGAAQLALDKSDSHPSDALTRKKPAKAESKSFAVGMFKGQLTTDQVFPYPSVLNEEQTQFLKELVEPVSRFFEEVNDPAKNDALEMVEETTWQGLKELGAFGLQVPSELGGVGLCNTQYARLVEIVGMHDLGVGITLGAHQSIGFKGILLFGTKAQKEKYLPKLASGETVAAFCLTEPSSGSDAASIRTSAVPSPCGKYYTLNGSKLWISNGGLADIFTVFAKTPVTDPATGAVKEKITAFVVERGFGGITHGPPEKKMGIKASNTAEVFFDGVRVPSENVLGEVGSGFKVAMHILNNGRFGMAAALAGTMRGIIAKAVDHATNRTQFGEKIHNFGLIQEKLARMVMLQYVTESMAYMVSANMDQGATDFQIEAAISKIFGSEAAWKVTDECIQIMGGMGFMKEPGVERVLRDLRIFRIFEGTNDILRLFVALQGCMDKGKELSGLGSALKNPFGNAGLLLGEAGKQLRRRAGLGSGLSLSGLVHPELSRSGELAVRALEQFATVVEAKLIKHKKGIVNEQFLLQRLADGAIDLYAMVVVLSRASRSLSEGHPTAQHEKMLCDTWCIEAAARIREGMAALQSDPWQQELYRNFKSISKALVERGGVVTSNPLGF
From the text: (§1) The labelled proteins were enriched by immunoprecipitation with an anti-fluorescein antibody and tryptically digested in gel. Digested peptides were modified with Light- (L-), Medium- (M-), or Heavy- (H-) TMT reagent for samples treated with 11, 11 with PU-H71 (as competitive condition), or DMSO (vehicle), respectively, and mixed in a 1:1:1 ratio for LC-MSMS analysis. We performed three experimental replicates, in which proteins detected and quantified at least twice were selected as identified proteins. According to the related approach of Cravatt et al[44], the proteins having L/H (11/DMSO) ratios >5 were defined as 11-labelled proteins. […] On the basis of these criteria, we identified 6 proteins that react with 11, including three ligand-specific targets (Hsp90α (HSP90AA1), Hsp90β (HSP90AB1), and Grp94 (HSP90B1)) and three off-targets (Trifunctional enzyme subunit α (HADHA), Tubulin-α (TUBA1B), and ADP/ATP translocase 3 (SLC25A6)) (Fig. 5d, e and Supplementary Data 1). […] Grp94, a HSP90 isomer, was previously reported to be a PU-H71 specific target. TRAP-1, another Hsp90 isomer that can bind PU-H71, on the other hand, was not identified as 11-target by our criteria.
(§2) SKBR3 human breast cancer cells (2.0 × 10^6 cells) were seeded on a 10 cm dish and cultured for 3 days in McCoy’s 5A in a 5% CO2 humidified chamber at 37 °C. […] As competitive experiments, the labelling was conducted in the presence of PU-H71 (10 µM). After labelling, the cells were washed twice with PBS, and lysed with RIPA buffer. […] The supernatant was mixed with chilled acetone and incubated overnight at −80 °C. The protein precipitates were solubilized by sonication in 1 mL of RIPA buffer containing 1% SDS, and then 10-fold diluted with RIPA buffer to reduce SDS concentration to c.a. 0.1%. The protein solution (containing 1 mg of protein) was mixed with Protein G Sepharose 4 Fast Flow (GE Healthcare) and rotated at 4 °C for 1 h. After removal of the beads, the remaining supernatant was mixed with anti-fluorescein antibody (Abcam, ab19491, 7:10000) and rotated at 4 °C for 1 h, followed by addition of fresh Protein G Sepharose 4 Fast Flow and further incubation at 4 °C for 4 h. The beads were washed five times with RIPA buffer and once with PBS. Proteins were eluted from the beads by addition of 2 × sample buffer containing 100 mM DTT and boiling at 95 °C for 5 min. The samples were subjected to a 7.5% SDS–PAGE gel (Mini-PROTEAN TGX Gels, BioRad), and electrophoresed as the migration distance of dye front is about 10 mm. Each lane was excised (height, 10 mm), and treated with a 47.5% methanol / 47.5% pure water / 5% acetic acid for 20 min, a 50% methanol / 50% pure water for 10 min, and in pure water for 10 min. The gel pieces were dehydrated with 100% acetonitrile, and then swelled with 200 μL of 100 mM TEAB (triethylamine bicarbonate) buffer containing 10 mM DTT and heated at 56 °C for 30 min. The solutions were replaced with 200 µL of 100 mM TEAB buffer containing 55 mM iodoacetamide and incubated for 45 min in the dark. The gel pieces were washed with 100 mM TEAB buffer and dehydrated in acetonitrile. This step was repeated once. The gels were reswelled in 100 mM TEAB buffer containing 10 ng/μL Sequencing Grade Trypsin (Promega) and incubated overnight at 37 °C. To the gels, 50 μL of an extraction solution (50% acetonitrile, 0.1% TFA) was added. After 10 min incubation, the supernatants were collected to new tubes, and this process was repeated twice. Extracted peptides were dried in vacuo and reconstituted with 25 μL of 100 mM TEAB buffer.

[2] = molecular target: T2, ADP/ATP translocase 3 (SLC25A6) (Homo sapiens, UniProt P12236); assay: TMT LC-MSMS of 11-labelled proteins; format: cell-based
T2 sequence (P12236 1-298): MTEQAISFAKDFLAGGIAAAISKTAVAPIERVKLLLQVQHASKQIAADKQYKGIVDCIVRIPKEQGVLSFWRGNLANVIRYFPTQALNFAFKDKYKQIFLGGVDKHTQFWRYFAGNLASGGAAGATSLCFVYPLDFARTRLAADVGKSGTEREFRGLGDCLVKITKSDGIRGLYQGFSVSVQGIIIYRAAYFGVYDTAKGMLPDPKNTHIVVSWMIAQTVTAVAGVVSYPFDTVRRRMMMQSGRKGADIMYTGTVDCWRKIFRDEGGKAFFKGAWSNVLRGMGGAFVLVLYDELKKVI
From the text: as §1, §2

[3] = sheet Exp1, SKBR3 cells, 11 0.5 µM 3 h vs DMSO
[4] = sheet Exp1, SKBR3 cells, 11 0.5 µM 3 h vs with PU-H71 10 µM
[5] = sheet Merged, SKBR3 cells, 11 0.5 µM 3 h vs DMSO
[6] = sheet Merged, SKBR3 cells, 11 0.5 µM 3 h vs with PU-H71 10 µM

**Q.** Which results are given for `CC(=O)Oc1ccc2c(c1)Oc1cc(OC(C)=O)ccc1C21OC(=O)c2cc(C(=O)NCCOCCOCCNC(=O)CCCC(=O)N(CC#N)S(=O)(=O)c3ccc(C(=O)NCCCn4c(Sc5cc6c(cc5I)OCO6)nc5c(N)ncnc54)cc3)ccc21` [compound 11]?
**A.** Abundance Ratio: (11) / (11 with PU-H71) ([1]; Exp3, ACADVL): 0.845; Abundance Ratio: (11) / (DMSO) ([1]; Exp3, ACADVL): 5.056; Abundances (Grouped): 11 ([1]; Exp3, ACADVL): 1747; Abundances (Grouped): 11 with PU-H71 ([1]; Exp3, ACADVL): 2067.1; Abundance Ratio: (11) / (DMSO) [1, 3]: 5.466; Abundance Ratio: (11) / (11 with PU-H71) [1, 4]: 0.816; Abundance Ratio: (11) / (11 with PU-H71) ([1]; sheet Exp2, ACADVL): 0.826; Abundance Ratio: (11) / (DMSO) ([1]; sheet Exp2, ACADVL): 4.735; Abundances (Grouped): 11 ([1]; sheet Exp2, ACADVL): 1334.4; Abundances (Grouped): 11 with PU-H71 ([1]; sheet Exp2, ACADVL): 1615.2; Abundance Ratio: (11) / (DMSO) [1, 5]: 4.735; Abundance Ratio: (11) / (11 with PU-H71) [1, 6]: 0.826; Abundance Ratio: (11) / (11 with PU-H71) ([2]; Exp3, SLC25A6): 0.576; Abundance Ratio: (11) / (DMSO) ([2]; Exp3, SLC25A6): 5.78; Abundances (Grouped): 11 ([2]; Exp3, SLC25A6): 626.5; Abundances (Grouped): 11 with PU-H71 ([2]; Exp3, SLC25A6): 1087.4; Abundance Ratio: (11) / (DMSO) [2, 3]: 5.287; Abundance Ratio: (11) / (11 with PU-H71) [2, 4]: 0.613; Abundance Ratio: (11) / (11 with PU-H71) ([2]; sheet Exp2, SLC25A6): 0.601; Abundance Ratio: (11) / (DMSO) ([2]; sheet Exp2, SLC25A6): 6.595; Abundances (Grouped): 11 ([2]; sheet Exp2, SLC25A6): 579; Abundances (Grouped): 11 with PU-H71 ([2]; sheet Exp2, SLC25A6): 963.9; Abundance Ratio: (11) / (DMSO) [2, 5]: 5.939; Abundance Ratio: (11) / (11 with PU-H71) [2, 6]: 0.586
